The record followed here is patent US11806441B2, “Viscoelastic hydrogels with fast stress relaxation” (President and Fellows of Harvard College, priority 2014, dated 2023).

This assay concerns U2OS cells. Briefly: U2OS cells plated on 2D alginate substrates: spreading, YAP localization, proliferation. Format: cell-based, human. The following applies: 10 μM, initial Young's modulus 1.4 kPa, RGD 1500. As for the experimental part:
Plating of cells on gels. 1 mm thick alginate hydrogels were prepared as previously described (Zhao et al. J. Appl. Phys. 107, 63509 (2010); and Huebsch et al. Nat Mater 9, 518-526 (2010)). Following gelation, 15 mm disks were punched out, and these disks were washed thoroughly 4 times over 2 days in serum free media to remove any excess calcium. […] Cells were allowed to spread for 20 hours, and then were fixed and stained for analysis. Only isolated cells, without any cell-cell contacts, were analyzed. Immunohistochemistry. For immunohistochemical staining, media was first removed from the gels. The gels were then fixed with 4% paraformaldehyde in serum free DMEM at 37° C. for 30-45 minutes. Gels were then washed 3 times in PBS containing calcium (cPBS). Gels from 3D studies were then incubated overnight in 30% sucrose in cPBS at 4° C. […] Images of all single cells were then thresholded manually based on the actin stain, and the area of the thresholded cell body was determined using a custom macro in ImageJ (NIH). […] The YAP nuclear localization ratio was then determined as the summed intensity of the YAP signal within the nucleus normalized by the nuclear area divided by the summed intensity of the YAP signal outside of the nucleus normalized by the non-nuclear cytoskeleton area.

In the case of `C[C@@H](N)[C@H]1CC[C@H](C(=O)Nc2ccncc2)CC1` [Y-27632], the “effect on increased cell spreading on stress relaxing substrate” value is “abrogated the increased cell spreading”.
